From US20130143886A1, “METHODS FOR PRESERVING AND/OR INCREASING RENAL FUNCTION USING XANTHINE OXIDOREDUCTASE INHIBITORS” (priority 2006, published 2013)
Marks after values point to notes of the source that are not given here.

How the values were obtained:
[1] = test system: remnant kidney (RK) rats; assay: Systolic blood pressure by tail cuff in conscious remnant kidney rats; type: in vivo, Male Wistar rats; settings: all four groups, after four weeks; corroborated by mean arterial pressure under anesthesia
Method: (§1) Male Wistar rats (295-340 g) were used to produce rats with remnant kidney (RK) as follows. […] Rats were then assigned to one of four treatment groups: Group 1, RK control rats (n=7); Group 2, RK+febuxostat (Fx) rats (n=8); Group 3, RK+oxonic acid (OA) rats (n=6); and Group 4, RK+OA+Fx (n=10). Oxonic acid (OA) (Sigma-Aldrich, St Louis Mo., USA), administered at 750 mg/kg body weight daily by oral gavage, was given starting the day after the ⅚ nephrectomy. […] Body weight (beginning just before surgery) and food and water intakes were measured daily. Systolic blood pressure, measured in conscious rats by a tail cuff sphygmomanometer, and plasma uric acid (UA) levels were measured at just before surgery (namely, at baseline) and at the end of the four weeks. Proteinuria was measured at baseline and at the end of two and four weeks. […] Food and water intake were determined daily. Systolic blood pressure (SBP) was measured by a tail-cuff sphygmomanometer using an automated system (XBP-100; Kent Scientific Co, Torrington, Conn., USA) in conscious animals. […] Plasma uric acid was quantified using a commercial kit (Diagnostic Chemicals Ltd, Charlottetown, PEI, Canada). […]

[2] = test system: remnant kidney (RK) rats; assay: Proteinuria in remnant kidney rats; type: in vivo, Male Wistar rats
Method: as §1

[3] = test system: remnant kidney (RK) rats; assay: Body weight, food and water intake in remnant kidney rats; type: in vivo, Male Wistar rats; settings: for BW / BW Gain (from baseline): End of Week 4
Method: Male Wistar rats (295-340 g) were used to produce rats with remnant kidney (RK) as follows. […] Rats were then assigned to one of four treatment groups: Group 1, RK control rats (n=7); Group 2, RK+febuxostat (Fx) rats (n=8); Group 3, RK+oxonic acid (OA) rats (n=6); and Group 4, RK+OA+Fx (n=10). Oxonic acid (OA) (Sigma-Aldrich, St Louis Mo., USA), administered at 750 mg/kg body weight daily by oral gavage, was given starting the day after the ⅚ nephrectomy. Beginning immediately following the surgery, febuxostat was administered in drinking water at 30 mg/L (3-4 mg/kg/day), whereas the respective controls received only drinking water (with 3.5 mg/L of NaCl added to keep an equivalent salt concentration to the Fx-containing water). All groups were treated for four weeks. Body weight (beginning just before surgery) and food and water intakes were measured daily. Systolic blood pressure, measured in conscious rats by a tail cuff sphygmomanometer, and plasma uric acid (UA) levels were measured at just before surgery (namely, at baseline) and at the end of the four weeks. Proteinuria was measured at baseline and at the end of two and four weeks. A renal micropuncture procedure along with systemic blood pressure monitoring under pentobarbital anesthesia was performed at the end of four weeks followed by morphologic evaluation of the renal preglomerular microvasculature. Food and water intake were determined daily. Systolic blood pressure (SBP) was measured by a tail-cuff sphygmomanometer using an automated system (XBP-100; Kent Scientific Co, Torrington, Conn., USA) in conscious animals. All animals were preconditioned for blood pressure measurements one week before each experiment. Plasma uric acid was quantified using a commercial kit (Diagnostic Chemicals Ltd, Charlottetown, PEI, Canada). Proteinuria was determined by turbidimetry by the method of trichloroacetic acid as described in Henry R J et al., “Turbidimetric determination of proteins with sulfosalicylic and tricholoroacetic acids”, Proc Soc Exp Biol Med 92:748-751 (1956), the contents of which are herein incorporated by reference.

[4] = test system: normal Sprague-Dawley rats; assay: Water intake in normal rats (earlier data of the laboratory); type: in vivo; settings: previous data of this laboratory
[5] = test system: Mice of the species/strain B6C3F1; assay: Histopathological examination of the kidney after 13 weeks of oral gavage dosing; type: in vivo; settings: for Vacuolar Degeneration of Renal Proximal Tubules (number of animals): 12 animals examined, 13 weeks
Method: Mice of the species/strain B6C3F1 of an initial age of 6 weeks were dosed via oral gavage with febuxostat suspended in 0.5% methyl cellulose. The daily dose administered was either 0 mg (i.e., the control group), 3 mg, 12 mg, 24 mg, or 48 mg. Histopathological examination of the kidney was carried out after 13-weeks of dosing for vacuolar degeneration of renal proximal tubules (a known naturally occurring change in rodents).

[6] = test system: remnant kidney (RK) rats; assay: Plasma uric acid in remnant kidney rats; type: in vivo, Male Wistar rats
Method: Male Wistar rats (295-340 g) were used to produce rats with remnant kidney (RK) as follows. […] Rats were then assigned to one of four treatment groups: Group 1, RK control rats (n=7); Group 2, RK+febuxostat (Fx) rats (n=8); Group 3, RK+oxonic acid (OA) rats (n=6); and Group 4, RK+OA+Fx (n=10). Oxonic acid (OA) (Sigma-Aldrich, St Louis Mo., USA), administered at 750 mg/kg body weight daily by oral gavage, was given starting the day after the ⅚ nephrectomy. Beginning immediately following the surgery, febuxostat was administered in drinking water at 30 mg/L (3-4 mg/kg/day), whereas the respective controls received only drinking water (with 3.5 mg/L of NaCl added to keep an equivalent salt concentration to the Fx-containing water). All groups were treated for four weeks. Body weight (beginning just before surgery) and food and water intakes were measured daily. Systolic blood pressure, measured in conscious rats by a tail cuff sphygmomanometer, and plasma uric acid (UA) levels were measured at just before surgery (namely, at baseline) and at the end of the four weeks. Proteinuria was measured at baseline and at the end of two and four weeks. A renal micropuncture procedure along with systemic blood pressure monitoring under pentobarbital anesthesia was performed at the end of four weeks followed by morphologic evaluation of the renal preglomerular microvasculature. Food and water intake were determined daily. Systolic blood pressure (SBP) was measured by a tail-cuff sphygmomanometer using an automated system (XBP-100; Kent Scientific Co, Torrington, Conn., USA) in conscious animals. […] Plasma uric acid was quantified using a commercial kit (Diagnostic Chemicals Ltd, Charlottetown, PEI, Canada). Proteinuria was determined by turbidimetry by the method of trichloroacetic acid as described in Henry R J et al., “Turbidimetric determination of proteins with sulfosalicylic and tricholoroacetic acids”, Proc Soc Exp Biol Med 92:748-751 (1956), the contents of which are herein incorporated by reference.

[7] = test system: remnant kidney (RK) rats; assay: Tubulointerstitial fibrosis quantification; type: in vivo, Male Wistar rats; settings: febuxostat in both RK and RK+OA rats
Method: Male Wistar rats (295-340 g) were used to produce rats with remnant kidney (RK) as follows. […] Rats were then assigned to one of four treatment groups: Group 1, RK control rats (n=7); Group 2, RK+febuxostat (Fx) rats (n=8); Group 3, RK+oxonic acid (OA) rats (n=6); and Group 4, RK+OA+Fx (n=10). Oxonic acid (OA) (Sigma-Aldrich, St Louis Mo., USA), administered at 750 mg/kg body weight daily by oral gavage, was given starting the day after the ⅚ nephrectomy. […] Arteriolar morphology was assessed by indirect peroxidase immunostaining for alpha-smooth muscle actin (DAKO Corp, Carpinteria, Calif., USA). […] The degree of tubulointerstitial fibrosis was quantified in 10 non-crossed fields of cortex (100×) per biopsy. Slides were analyzed by light microscopy (Olympus BX51; Olympus American, Melville, N.Y., USA) and captured by a digital video camera (CoolSnap Pro; Media Cybernetics, Silver Spring, Md., USA). Pictures were processed on a computer and analyzed using Image Pro-Plus (version 5.0; Media Cybernetics, Silver Spring, Md., USA). Taking advantage of the capabilities of color recognition with this software, positive blue-stained areas (fibrosis) were selected and quantified in pixel units; glomeruli and vessels were previously excluded from the field. For each biopsy, the mean amount of positive blue-stained area was calculated by averaging the values from ten examined fields.

[8] = RK + OA + Fx group (OA-induced hyperuricemia)
[9] = RK + OA + Fx group (OA-induced hyperuricemia), Week 1
[10] = RK + OA + Fx group (OA-induced hyperuricemia), Week 2
[11] = RK + OA + Fx group (OA-induced hyperuricemia), Week 3
[12] = RK + OA + Fx group (OA-induced hyperuricemia), Week 4
[13] = RK rats (RK + Fx or RK + OA group)
[14] = RK rats (RK + Fx or RK + OA group), Week 1
[15] = RK rats (RK + Fx or RK + OA group), Week 2
[16] = RK rats (RK + Fx or RK + OA group), Week 3
[17] = RK rats (RK + Fx or RK + OA group), Week 4

## Cc1nc(-c2ccc(OCC(C)C)c(C#N)c2)sc1C(=O)O [febuxostat, 2-[3-cyano-4-(2-methylpropoxy)phenyl]-4-methylthiazole-5-carboxylic acid]
[1]
  Systolic blood pressure (in words): developed systemic hypertension to approximately the same degree
[2]; RK rats with and without hyperuricemia
  Rise of urinary protein excretion (in words): prevented the rise of urinary protein excretion
[2]; RK+Fx and RK+OA+Fx rats, end of Week 4
  Urinary protein excretion, lower than the values in the respective control groups: 75-80%
[3]; [8]
  BW: 316.7 ± 12.3 g
  BW Gain (from baseline): -3.0 ± 11.5 g
[3]; [9]
  Daily Food Intake: 8.7 ± 1.7 g
  Daily Water Intake: 30.2 ± 2.8 mL
[3]; [10]
  Daily Food Intake: 16.0 ± 0.7 g
  Daily Water Intake: 40.6 ± 2.6 mL
[3]; [11]
  Daily Food Intake: 18.4 ± 0.5 g
  Daily Water Intake: 38.6 ± 1.0 mL
[3]; [12]
  Daily Food Intake: 18.6 ± 0.5 g
  Daily Water Intake: 40.5 ± 1.6 mL
[3]; [13]
  BW: 340.6 ± 10.8 g
  BW Gain (from baseline): 18.4 ± 8.2 g
[3]; [14]
  Daily Food Intake: 8.6 ± 1.5 g
  Daily Water Intake: 31.5 ± 1.4 mL
[3]; [15]
  Daily Food Intake: 15.4 ± 0.5 g
  Daily Water Intake: 32.6 ± 1.2 mL
[3]; [16]
  Daily Food Intake: 20.2 ± 0.5 g
  Daily Water Intake: 37.2 ± 2.5 mL
[3]; [17]
  Daily Food Intake: 22.4 ± 1.3 g
  Daily Water Intake: 39.4 ± 1.6 mL
[3]; RK rats, normal daily water intake 35-40 mL
  Water intake in RK rats during febuxostat treatment (in words): reduced to near normal levels
[3]; end of the study
  Body weight or body weight gain between the four treatment groups (in words): no significant differences in body weight or body weight gain
[4]
  Effect on water intake: no effect on water intake
[5]; Daily Dose 3, Female
  Vacuolar Degeneration of Renal Proximal Tubules (number of animals): 1
[5]; Daily Dose 3, Male
  Vacuolar Degeneration of Renal Proximal Tubules (number of animals): 7*
[5]; Daily Dose 12, Female
  Vacuolar Degeneration of Renal Proximal Tubules (number of animals): 1
[5]; Daily Dose 12, Male
  Vacuolar Degeneration of Renal Proximal Tubules (number of animals): 5**
[5]; Daily Dose 24, Female
  Vacuolar Degeneration of Renal Proximal Tubules (number of animals): 0
[5]; Daily Dose 24, Male
  Vacuolar Degeneration of Renal Proximal Tubules (number of animals): 2**
[5]; Daily Dose 48, Female
  Vacuolar Degeneration of Renal Proximal Tubules (number of animals): 2
[5]; Daily Dose 48, Male
  Vacuolar Degeneration of Renal Proximal Tubules (number of animals): 1**
[5]; male animals
  Vacuolar degeneration of the renal proximal tubules (in words): reduced the amount of vacuolar degeneration of the renal proximal tubules in a statistically significant fashion
[6]; RK rats receiving febuxostat, end of four weeks, difference not statistically significant
  Plasma uric acid as % of the value measured in the RK control rats: approximately 63%
[6]; febuxostat added to OA-treated RK rats
  Plasma uric acid in OA-treated rats (in words): prevented the'rise of uric acid levels
[7]
  Tubulointerstitial (TI) fibrosis (in words): significantly decreased
